From US20230285347A1, “Preterm Labour with Prostaglandin E2 Receptor Agonists” (IMPERIAL COLLEGE INNOVATIONS LIMITED, priority 2020, published 2023)

Biological target: T1, EP2 (Homo sapiens, UniProt P43116)
T1 construct: primary human myocytes cultured from term pregnant, non-labouring, myometrium; endogenous in cells; host or cells: primary human myometrial cells (myocytes) cultured from pregnant myometrium
Assay: cAMP signalling in myometrial cells from different labouring groups, EP2 agonist
Type: cell-based
Details: butaprost 10 μM, FIG. 8
Procedure: L=non-labouring, L+E=early stage spontaneous labour, L+L=late stage spontaneous labour, L+SE=early stage induced labour, L+SL=late stage induced labour. Myometrial cells from different labouring groups were treated with IBMX (5 minutes, 0.5 mM) before 1 minute stimulation with IBMX with/without butaprost (10 μM) or isoproterenol (10 μM). cAMP concentrations were normalised to protein. Data shown as mean±SEM, L−n=4. All other groups n=5. Each treatment compared to L− using one-way ANOVA with Dunnett's multiple comparison post-hoc test: **p<0.01, ***p<0.001, ****p<0.0001.
Myometrial tissue was acquired at St. Mary's hospital, Queen Charlotte and Chelsea hospital and Charing Cross hospital, London. Tissue was obtained from women provided with informed written consent with the approval from the Riverside Research Ethics Committee (RREC 3357, 1997-5089, 19/LO/1657) and experiments were carried out under the committee's guidelines and recommendations. Tissues were obtained from term (38+0-40 weeks gestation) pregnant women undergoing elective caesarean from the upper margin of the incision made at the lower segment of the uterus, before or after the onset of labor. Tissues taken from women in early labour (<3 cm cervical dilation) or late labour (>3 cm cervical dilation) with/without induction with syntocinon, an oxytocin analogue. Tissue was only taken from uncomplicated, singleton pregnancies.
Tissue was stored at 4° C. in phosphate buffered saline until fine dissection with scalpels and dissociation at 37° C. for 1 hour in a sterile-filtered mix of Dulbecco's modified Eagle's medium (DMEM) (Sigma Aldrich)/Ham's F-12 Nutrient Mixture (Sigma Aldrich) and serum-free DMEM (Sigma Aldrich) (1:1 v/v) containing collagenase 1A (Sigma Aldrich)(1 mg/ml), collagenase X (Sigma Aldrich)(1 mg/ml) and bovine serum albumin (Sigma Aldrich) (2 mg/ml). Dissociation was ended using DMEM 10% fetal bovine serum (Sigma Aldrich) and cell suspension was obtained using a 40-μm cell strainer before centrifugation at 3000 rpm for 5 minutes. […]

T1 sequence (P43116 whole entry): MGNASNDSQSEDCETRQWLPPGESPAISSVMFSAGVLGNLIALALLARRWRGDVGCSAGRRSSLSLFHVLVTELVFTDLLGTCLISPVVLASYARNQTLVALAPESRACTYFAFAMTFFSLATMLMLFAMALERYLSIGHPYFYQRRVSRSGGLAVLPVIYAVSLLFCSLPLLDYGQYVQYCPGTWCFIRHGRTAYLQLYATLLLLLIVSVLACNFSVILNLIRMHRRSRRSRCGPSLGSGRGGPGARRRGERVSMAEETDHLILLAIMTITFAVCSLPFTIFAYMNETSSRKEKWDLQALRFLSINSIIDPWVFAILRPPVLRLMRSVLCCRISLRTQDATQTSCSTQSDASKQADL

reduction of agonist-stimulated cAMP, non-labouring vs spontaneous early labour (spontaneous early labour samples): 2.5 fold | reduction of agonist-stimulated cAMP, non-labouring vs spontaneous late labour (spontaneous late labour samples): 10 fold
SMILES: CCCC1([C@H](O)C/C=C/[C@H]2[C@H](O)CC(=O)[C@@H]2CCCCCCC(=O)OC)CCC1 [butaprost]
agonist-induced cAMP signalling in labouring groups vs non-labouring (all labouring groups): significantly attenuated in all labouring groups
